Test [1] deals with H2009 (human lung epithelial adenocarcinoma) cells, αvβ6 integrin expressing. As to the kind of experiment: αvβ6 ligand binding, flow cytometry of Cy5-labeled ligand-polymer conjugates, H2009 αvβ6 positive cells. The class given is cell-based. To be noted: Cy5-polymer conjugate 5 μg/ml, 37° C., 3 h, specific MFI ratio = sample MFI/no-ligand MFI. The protocol:
(§1) Each αvβ6 ligand was attached to a reversibly modified 1170-100B polymer cargo molecule. The 1170-100B polymer cargo molecule (a 56:44 ethoxyethylamine acrylate:propyl acrylate copolymer having a MW of about 45000) was labeled with Cy5 (NHS linker) and combined with aldehyde-PEG24-ACit at a weight ratio of 2:1 (polymer:aldehyde-PEG24-ACit) in 50 mM HEPES pH 9.0 buffer for 1 h at RT to form (aldehyde-PEG24-ACit)n-1170-100B wherein n is an integer greater than 0. Typically, n was about 10.
(§2) The aldehyde-PEG24-ACit-modified polymer was then reacted with PEG12-ACit at a weight ratio of 1:8 (polymer:PEG12-ACit) in 50 mM HEPES, pH 9.0 buffer for 1 h at RT to form (aldehyde-PEG24-ACit)n-1170-100B-(CitA-PEG12)m, wherein m is an integer greater than 0.
(§3) The modified polymer was then purified using a sephadex G-50 spin column and concentration determined:
(§4) Each αvβ6 ligand was modified with HyNic to facilitate conjugation to the cargo molecule. Purified polymer was combined with αvβ6 ligand-(PEG)8-K-HyNic at a weight ratio of 1:1.9 (polymer: αvβ6 ligand) in 50 mM NaOAC-HOAc, pH 5.0 buffer at RT overnight to form the αvβ6 ligand-polymer conjugate. The αvβ6 ligand-polymer conjugate was purified using a sephadex G-50 spin column.
Conjugation efficiency was quantified by measuring Absorbance of the αvβ6-polymer conjugate at 354 nm using an extinction coefficient of […] M^−1 cm^−1 for bis-aryl hydrazone bond.
αvβ6-polymer conjugates were diluted with isotonic glucose solution to desired concentrations for further analysis.
To assess for specificity of binding of the αvβ6 ligands to the αvβ6 integrin, each αvβ6 ligand or negative control peptide was conjugated to a Cy5-labeled polymer (as described above) and evaluated for binding to cells. […] H2009 (human lung epithelial adenocarcinoma) and CAPAN-2 (human pancreas adenocarcinoma) cells served as the αvβ6 positive-control cell lines. Cells were detached from culturing flasks with Accutase, washed in PBS, and seeded into 5 ml polystyrene round-bottom tubes at 200,000 cells in 200 μl complete media (culturing media with supplements and fetal calf serum). αvβ6 ligand-polymer conjugates or no-ligand-polymer conjugates were added at 5 μg/ml (polymer-Cy5 concentration) to cells, mixed and incubated at 37° C. for 3 h. Incubation at 37° C. facilitated ligand/receptor interaction which may result in static binding to the extracellular cell surface and/or internalized ligand/receptor complexes. The mixture was re-suspended at 1 h intervals. Following a 3 h incubation, cells were washed 2× with 4 ml chilled buffer (PBS-2% FCS) and re-suspended in 200 μl buffer containing 10 μM SYTOX blue stain for live/dead cell gating. Samples were analyzed on a BD Biosciences Canto II cytometer equipped with a violet (405 nm), blue (488 nm) and red (633 nm) lasers. Viable cells were initially gated as the SYTOX blue negative population on the C detector with the violet laser. These viable cells were then assessed for conjugate binding/uptake with the red laser as the Mean Fluorescence Intensity (MFI) of the Cy5 fluorophore. Data analyses were performed with FlowJo v10.1 software. A specific MFI Ratio (sMFIr) for each αvβ6 ligand was determined by the formula: specific sample MFI value/no-ligand MFI value.
A general note: A flow cytometer gives signals particle by particle.

Test [2] relates to SKOV3 (human ovarian carcinoma) cells, very low αvβ6 cell surface expression. As to the kind of experiment: αvβ6 ligand binding, flow cytometry of Cy5-labeled ligand-polymer conjugates, SKOV3 negative-control cells. To be noted: Cy5-polymer conjugate 5 μg/ml, 37° C., 3 h; specific MFI ratio = sample MFI/no-ligand MFI. In kind it is cell-based. How it is done: as §1, §2, §3, §4
Conjugation efficiency was quantified by measuring Absorbance of the αvβ6-polymer conjugate at 354 nm using an extinction coefficient of […] M^−1 cm^−1 for bis-aryl hydrazone bond. […]
To assess for specificity of binding of the αvβ6 ligands to the αvβ6 integrin, each αvβ6 ligand or negative control peptide was conjugated to a Cy5-labeled polymer (as described above) and evaluated for binding to cells. […] Samples were analyzed on a BD Biosciences Canto II cytometer equipped with a violet (405 nm), blue (488 nm) and red (633 nm) lasers. […] These viable cells were then assessed for conjugate binding/uptake with the red laser as the Mean Fluorescence Intensity (MFI) of the Cy5 fluorophore. […] A specific MFI Ratio (sMFIr) for each αvβ6 ligand was determined by the formula: specific sample MFI value/no-ligand MFI value.

Non-standard residues stand in square brackets, D forms with d. No end group written: not given here. Cit = NC(=O)NCCC[C@H](N)C(=O)O; R(Me)2 = dimethyl-arginine; Abu = CC[C@H](N)C(=O)O; Aib = CC(C)(N)C(=O)O

For the substance “Ac-R(Me)2GDLATLRQL (Ac-[R(Me)2]GDLATLRQL) [negative control peptide]”, the entries for the “MFI H2009” value in test [1] and in test [1] (listed as AcR(Me)2GDLATLRQL) were 1 and “did not show significant binding”, respectively. In addition, the “MFI SKOV3” value in test [2] amounted to 0.9.
Consider “CH3(CH2)2-RGDLAAbuLCitAib ({CH3(CH2)2}-RGDLA[Abu]L[Cit][Aib])”, for which the “MFI H2009” value in test [1] turned out to be 3.9.
With “CH3(CH2)3-RGDLAAbuLCitAib ({CH3(CH2)3}-RGDLA[Abu]L[Cit][Aib])”, the “MFI H2009” value in test [1] was 4.7.
On to “CH3(CH2)4-RGDLAAbuLCitAib ({CH3(CH2)4}-RGDLA[Abu]L[Cit][Aib])”, for which, in test [1], the “MFI H2009” value worked out at 4.1.
The same measure, in the same setting: the result for “CH3CH2-RGDLAAbuLCitAib (CH3CH2-RGDLA[Abu]L[Cit][Aib])” reads 4.4.
Regarding “Dap(guanidino)-GDLATLRQL ({Dap(guanidino)}-GDLATLRQL)”, the “MFI H2009” value in test [1] was found to be 3.4. The “MFI SKOV3” value in test [2] worked out at 1.4.
For “des-amino-RGDLATLRQL ({des‑amino}-RGDLATLRQL; not fully specified (residue 1); printed as des-amino-RGDLATLRQL)” the same measures were 1.1 and 0.8.
As to “meta-guanidino-benzoic-GDLATLRQL ({meta‑guanidino‑benzoic}-GDLATLRQL)”, the “MFI H2009” value in test [1] amounted to 4.5.

The values are drawn from patent US11180529B2, “Alpha-v beta-6 integrin ligands and uses thereof” (Arrowhead Pharmaceuticals, Inc., priority 2016, dated 2021).
